Tests used:
Human rhinovirus sp. [1] = assay: Antiviral activity against rhinoviral 29 serotype in a plaque inhibition assay using monolayers of M-HeLa cells; type: functional, organism-based
Human rhinovirus sp. [2] = assay: Antiviral activity against rhinoviral 2 serotype in a plaque inhibition assay using monolayers of M-HeLa cells; type: functional, organism-based
Human rhinovirus sp. [3] = assay: Antiviral activity against rhinoviral 30 serotype in a plaque inhibition assay using monolayers of M-HeLa cells; type: functional, organism-based
[4] = Antiviral activity against rhinoviral 13 serotype in a plaque inhibition assay using monolayers of M-HeLa cells; type: functional, cell-based; settings: Homo sapiens
Human rhinovirus sp. [5] = assay: Antiviral activity against rhinoviral 14 serotype in a plaque inhibition assay using monolayers of M-HeLa cells; type: functional, organism-based
Human rhinovirus sp. [6] = assay: Antiviral activity against rhinoviral 15 serotype in a plaque inhibition assay using monolayers of M-HeLa cells; type: functional, organism-based
Human rhinovirus sp. [7] = assay: Antiviral activity against rhinoviral 12 serotype in a plaque inhibition assay using monolayers of M-HeLa cells; type: functional, organism-based
Human rhinovirus sp. [8] = assay: Antiviral activity against rhinoviral-18 serotype in a plaque inhibition assay using monolayers of M-HeLa cells; type: functional, organism-based
Human rhinovirus sp. [9] = assay: Antiviral activity against rhinoviral-19 serotype in a plaque inhibition assay using monolayers of M-HeLa cells; type: functional, organism-based
Human rhinovirus sp. [10] = assay: Antiviral activity against rhinoviral-1A serotype in a plaque inhibition assay using monolayers of M-HeLa cells; type: functional, organism-based
Human rhinovirus sp. [11] = assay: Antiviral activity against rhinoviral-1B serotype in a plaque inhibition assay using monolayers of M-HeLa cells; type: functional, organism-based
[12] = Percent inhibitory activity at 2.5 uM against rhinoviral 3 serotype in a plaque inhibition assay using monolayers of M-HeLa cells; type: functional, Homo sapiens
[13] = Percent inhibitory activity at 2.5 uM against rhinoviral 4 serotype in a plaque inhibition assay using monolayers of M-HeLa cells; type: functional, Homo sapiens
[14] = Percent inhibitory activity at 2.5 uM against rhinoviral 8 serotype in a plaque inhibition assay using monolayers of M-HeLa cells; type: functional, Homo sapiens
Human rhinovirus sp. [15] = assay: Percent inhibitory activity at 8 uM against rhinoviral 21 serotype in a plaque inhibition assay using monolayers of M-HeLa cells; type: functional
Human rhinovirus sp. [16] = assay: Percent inhibitory activity at 8 uM against rhinoviral 5 serotype in a plaque inhibition assay using monolayers of M-HeLa cells; type: functional
Human rhinovirus sp. [17] = assay: (§1) Antiviral activity against rhinoviral 9 serotype in a plaque inhibition assay using monolayers of M-HeLa cells; type: functional, organism-based
Human rhinovirus sp. [18] = assay: Antiviral activity against rhinoviral 31 serotype in a plaque inhibition assay using monolayers of M-HeLa cells; type: functional, organism-based
[19] = Percent inhibitory activity at 5 uM against rhinoviral 16 serotype in a plaque inhibition assay using monolayers of M-HeLa cells; type: functional, Homo sapiens
Human rhinovirus sp. [20] = assay: Antiviral activity against rhinoviral 4 serotype in a plaque inhibition assay using monolayers of M-HeLa cells; type: functional, organism-based
Human rhinovirus sp. [21] = assay: Antiviral activity against rhinoviral 8 serotype in a plaque inhibition assay using monolayers of M-HeLa cells; type: functional, organism-based
Human rhinovirus sp. [22] = assay: Antiviral activity against rhinoviral 16 serotype in a plaque inhibition assay using monolayers of M-HeLa cells; type: functional, organism-based
Human rhinovirus sp. [23] = assay: Percent inhibitory activity at 8 uM against rhinoviral 13 serotype in a plaque inhibition assay using monolayers of M-HeLa cells; type: functional
[24] = Percent inhibitory activity at 8 uM against rhinoviral 18 serotype in a plaque inhibition assay using monolayers of M-HeLa cells; type: functional, Homo sapiens
Human rhinovirus sp. [25] = assay: Percent inhibitory activity at 8 uM against rhinoviral 29 serotype in a plaque inhibition assay using monolayers of M-HeLa cells; type: functional
Human rhinovirus sp. [26] = assay: Percent inhibitory activity at 8 uM against rhinoviral 3 serotype in a plaque inhibition assay using monolayers of M-HeLa cells; type: functional
Human rhinovirus sp. [27] = assay: Antiviral activity against rhinoviral 5 serotype in a plaque inhibition assay using monolayers of M-HeLa cells; type: functional, organism-based
Human rhinovirus sp. [28] = assay: Percent inhibitory activity at 8 uM against rhinoviral 30 serotype in a plaque inhibition assay using monolayers of M-HeLa cells; type: functional
Human rhinovirus sp. [29] = assay: Antiviral activity against rhinoviral 3 serotype in a plaque inhibition assay using monolayers of M-HeLa cells; type: functional, organism-based
[30] = as §1; type: functional, cell-based; settings: Homo sapiens
Human rhinovirus sp. [31] = assay: Percent inhibitory activity at 8 uM against rhinoviral 14 serotype in a plaque inhibition assay using monolayers of M-HeLa cells; type: functional
Human rhinovirus sp. [32] = assay: Percent inhibitory activity at 8 uM against rhinoviral 15 serotype in a plaque inhibition assay using monolayers of M-HeLa cells; type: functional
[33] = Percent inhibitory activity at 8 uM against rhinoviral 8 serotype in a plaque inhibition assay using monolayers of M-HeLa cells; type: functional, Homo sapiens
[34] = Percent inhibitory activity at 8 uM against rhinoviral-18 serotype in a plaque inhibition assay using monolayers of M-HeLa cells; type: functional, Homo sapiens
[35] = Percent inhibitory activity at 8 uM against rhinoviral 2 serotype in a plaque inhibition assay using monolayers of M-HeLa cells; type: functional, Homo sapiens
Human rhinovirus sp. [36] = assay: Antiviral activity against rhinoviral 21 serotype in a plaque inhibition assay using monolayers of M-HeLa cells; type: functional, organism-based
Human rhinovirus sp. [37] = assay: Percent inhibitory activity at 8 uM against rhinoviral 19s erotype in a plaque inhibition assay using monolayers of M-HeLa cells; type: functional
Human rhinovirus sp. [38] = assay: Percent inhibitory activity at 8 uM against rhinoviral 31 serotype in a plaque inhibition assay using monolayers of M-HeLa cells; type: functional
Human rhinovirus sp. [39] = assay: Percent inhibitory activity at 8 uM against rhinoviral 4 serotype in a plaque inhibition assay using monolayers of M-HeLa cells; type: functional
Human rhinovirus sp. [40] = assay: Antiviral activity against rhinoviral 18 serotype in a plaque inhibition assay using monolayers of M-HeLa cells; type: functional, organism-based
Human rhinovirus sp. [41] = assay: Antiviral activity against rhinoviral 19 serotype in a plaque inhibition assay using monolayers of M-HeLa cells; type: functional, organism-based

| IC50 (Human rhinovirus sp. [1]) | IC50 (Human rhinovirus sp. [2]) | IC50 (Human rhinovirus sp. [3]) | IC50 [4] | IC50 (Human rhinovirus sp. [5]) | IC50 (Human rhinovirus sp. [6]) | IC50 (Human rhinovirus sp. [7]) | IC50 (Human rhinovirus sp. [9]) | IC50 (Human rhinovirus sp. [10]) | IC50 (Human rhinovirus sp. [11]) | IC50 (Human rhinovirus sp. [17]) | IC50 (Human rhinovirus sp. [18]) | IC50 (Human rhinovirus sp. [20]) | IC50 (Human rhinovirus sp. [22]) | IC50 (Human rhinovirus sp. [36]) | Compound | Inhibition (Human rhinovirus sp. [15]) | Inhibition (Human rhinovirus sp. [16]) | Inhibition (Human rhinovirus sp. [23]) | Inhibition (Human rhinovirus sp. [28]) | Inhibition [33] | further results |
| --- | --- | --- | --- | --- | --- | --- | --- | --- | --- | --- | --- | --- | --- | --- | --- | --- | --- | --- | --- | --- | --- |
| 4.2 µM | 5.7 µM | 2.2 µM | 2.6 µM | 1.2 µM | 1 µM | 2.6 µM | 6.7 µM | 0.1 µM | 0.03 µM | 0.35 µM | 1.2 µM | – | – | – | Cc1ccc(Cn2cnc3c(N(C)C)nc(C(F)(F)F)nc32)cc1 | 40% | 18% | – | – | – | IC50 (Human rhinovirus sp. [8]): 1.8 µM; Inhibition [12]: 43 µM; Inhibition [13]: 41 µM; Inhibition [14]: 41 µM; Inhibition [19]: 12% |
| 2.7 µM | 15 µM | – | – | 7.1 µM | 3.2 µM | 2.3 µM | – | 0.57 µM | 0.03 µM | 0.3 µM | – | – | 0.8 µM | 10 µM | CN(C)c1nc(C(F)(F)F)nc2c1ncn2Cc1cccc(F)c1 | – | 34% | 30% | 28% | 45% | IC50 (Human rhinovirus sp. [8]): 8 µM; Inhibition (Human rhinovirus sp. [37]): 28%; Inhibition (Human rhinovirus sp. [38]): 43%; Inhibition (Human rhinovirus sp. [26]): 35%; Inhibition (Human rhinovirus sp. [39]): 34% |
| 2.5 µM | 6.6 µM | 6.5 µM | > 8 µM | 4.3 µM | 3.3 µM | 7.4 µM | – | 0.73 µM | 0.03 µM | 0.9 µM | 5.3 µM | 6.1 µM | – | 7.4 µM | CN(C)c1nc(C(F)(F)F)nc2c1ncn2Cc1ccc(Cl)cc1 | – | – | – | – | – | IC50 (Human rhinovirus sp. [40]): > 8 µM; IC50 (Human rhinovirus sp. [41]): 6.5 µM; IC50 (Human rhinovirus sp. [29]): 6.9 µM; IC50 (Human rhinovirus sp. [21]): 5.7 µM; IC50 (Human rhinovirus sp. [27]): 8 µM |

Continued, compound first:

| Compound | IC50 (Human rhinovirus sp. [1]) | IC50 (Human rhinovirus sp. [2]) | IC50 (Human rhinovirus sp. [3]) | IC50 [4] | IC50 (Human rhinovirus sp. [5]) | IC50 (Human rhinovirus sp. [6]) | IC50 (Human rhinovirus sp. [7]) | IC50 (Human rhinovirus sp. [9]) | IC50 (Human rhinovirus sp. [10]) | IC50 (Human rhinovirus sp. [11]) | IC50 (Human rhinovirus sp. [17]) | IC50 (Human rhinovirus sp. [18]) | IC50 (Human rhinovirus sp. [20]) | IC50 (Human rhinovirus sp. [22]) | IC50 (Human rhinovirus sp. [36]) | Inhibition (Human rhinovirus sp. [15]) | Inhibition (Human rhinovirus sp. [16]) | Inhibition (Human rhinovirus sp. [23]) | Inhibition (Human rhinovirus sp. [28]) | Inhibition [33] | further results |
| --- | --- | --- | --- | --- | --- | --- | --- | --- | --- | --- | --- | --- | --- | --- | --- | --- | --- | --- | --- | --- | --- |
| COc1ccc(Cn2cnc3c(N(C)C)nc(C(F)(F)F)nc32)cc1C | – | 8 µM | – | – | 7.5 µM | 9 µM | 4.1 µM | 8.6 µM | 2.6 µM | 0.2 µM | 1.3 µM | – | 5.5 µM | 1.9 µM | – | 16% | – | 12% | 20% | – | IC50 (Human rhinovirus sp. [21]): > 8 µM; Inhibition [24]: 35 µM; Inhibition (Human rhinovirus sp. [25]): 27%; Inhibition (Human rhinovirus sp. [26]): 28%; IC50 (Human rhinovirus sp. [27]): > 8 µM |
| CN(C)c1nc(C(F)(F)F)nc2c1ncn2Cc1ccc(S(C)(=O)=O)cc1 | 3 µM | – | – | 4.2 µM | – | – | 6 µM | 9 µM | 2.3 µM | 0.5 µM | – | 4.3 µM | 8.8 µM | 2.3 µM | 9 µM | – | 40% | – | 32% | 36% | IC50 (Human rhinovirus sp. [29]): 4.7 µM; IC50 [30]: 3.7 µM; Inhibition (Human rhinovirus sp. [31]): 16%; Inhibition (Human rhinovirus sp. [32]): 47%; Inhibition [34]: 29%; Inhibition [35]: 36% |
| CN(C)c1ccc(Cn2cnc3c(N(C)C)nc(C(F)(F)F)nc32)cc1 | 4.7 µM | 11 µM | – | – | – | – | 4 µM | – | 1.2 µM | 0.29 µM | 4.6 µM | – | 6.1 µM | 1.9 µM | – | 27% | 39% | 45% | 35% | 37% | IC50 (Human rhinovirus sp. [40]): 8.9 µM; Inhibition (Human rhinovirus sp. [31]): 46%; Inhibition (Human rhinovirus sp. [32]): 30%; Inhibition (Human rhinovirus sp. [37]): 23%; Inhibition (Human rhinovirus sp. [38]): 41% |
